# Data published in patent publication US10336702B2, “Pharmaceutically active compounds” (BERGENBIO ASA, priority 2015, dated 2019).
# Experiments:
# p-Akt1 in LNCaP cells = target: T1, p-Akt1 in LNCaP cells (Homo sapiens, UniProt P31749); test: Phospho-Akt cellular SureFire assay, p-Akt1 in LNCaP cells; format: cell-based; details: read-out: Biological Assay 2 IC50 (nM) Akt1 LNCaP
# T1 construct: SureFire assays to detect cellular p-Akt1, p-Akt2 and p-Akt3 levels in WM115 cells (Akt2/3) and LNCaP cells (Akt1); endogenous in cells; host or cells: LNCaP (ECACC 89110211)
# T1 sequence (P31749 whole entry): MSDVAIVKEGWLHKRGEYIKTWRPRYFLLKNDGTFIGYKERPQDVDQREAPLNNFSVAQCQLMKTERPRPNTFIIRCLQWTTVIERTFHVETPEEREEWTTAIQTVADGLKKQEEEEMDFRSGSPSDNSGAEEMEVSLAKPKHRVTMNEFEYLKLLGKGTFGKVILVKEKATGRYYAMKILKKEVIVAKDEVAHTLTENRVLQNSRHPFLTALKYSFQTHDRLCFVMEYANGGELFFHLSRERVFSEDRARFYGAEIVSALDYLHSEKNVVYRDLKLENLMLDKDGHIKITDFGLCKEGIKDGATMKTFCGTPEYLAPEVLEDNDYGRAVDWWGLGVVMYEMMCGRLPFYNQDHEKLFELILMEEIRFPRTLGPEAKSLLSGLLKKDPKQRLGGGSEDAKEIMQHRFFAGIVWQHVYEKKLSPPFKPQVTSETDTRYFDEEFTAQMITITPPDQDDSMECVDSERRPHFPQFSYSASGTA
# How it was run: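 Phospho-Thr308 Akt1 detected by AlphaScreen SureFire proximity beads in LNCaP lysates after 15 min compound treatment at 37 °C in 0.1% FBS medium, unstimulated, 0.3% DMSO. Cells plated at 5×10^4/well overnight; IC50 from a 4-parameter equation.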
# p-Akt3 in WM115 cells = target: T2, p-Akt3 in WM115 cells (Homo sapiens, UniProt Q9Y243); test: Phospho-Akt cellular SureFire assay, p-Akt3 in WM115 cells; format: cell-based; details: insulin stimulated, read-out: Biological Assay 2 IC50 (nM) Akt3 WM115
# T2 construct: SureFire assays to detect cellular p-Akt1, p-Akt2 and p-Akt3 levels in WM115 cells (Akt2/3) and LNCaP cells (Akt1); endogenous in cells; host or cells: WM115 (ECACC 91061232), insulin-stimulated
# T2 sequence (Q9Y243 whole entry): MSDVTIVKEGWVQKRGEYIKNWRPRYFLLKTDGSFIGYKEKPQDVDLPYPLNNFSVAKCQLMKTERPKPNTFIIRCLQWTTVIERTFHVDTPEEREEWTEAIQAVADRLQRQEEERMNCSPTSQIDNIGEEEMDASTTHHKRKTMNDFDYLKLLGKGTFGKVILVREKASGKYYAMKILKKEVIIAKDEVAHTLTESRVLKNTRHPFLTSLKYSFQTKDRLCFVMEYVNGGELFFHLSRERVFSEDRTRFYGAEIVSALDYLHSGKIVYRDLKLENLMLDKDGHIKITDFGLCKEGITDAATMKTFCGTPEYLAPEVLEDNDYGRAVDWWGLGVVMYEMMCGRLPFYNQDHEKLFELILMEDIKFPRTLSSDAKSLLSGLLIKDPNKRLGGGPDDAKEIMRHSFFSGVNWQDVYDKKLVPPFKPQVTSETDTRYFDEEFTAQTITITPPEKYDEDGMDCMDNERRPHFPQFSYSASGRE
# How it was run: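 pThr308-Akt3 in lysates was quantified by bead-proximity SureFire detection, pairing a phospho-specific antibody with a total Akt3 antibody. Before lysis, WM115 cells in 0.1% FBS medium were treated for 15 min at 37 °C with compound (final DMSO 0.3%), following a 10 min stimulation with 100 nM insulin. IC50 was obtained by 4-parameter fitting.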
# p-Akt2 in WM115 cells = target: T3, p-Akt2 in WM115 cells (Homo sapiens, UniProt P31751); test: Phospho-Akt cellular SureFire assay, p-Akt2 in WM115 cells; format: cell-based; details: insulin stimulated, read-out: Biological Assay 2 IC50 (nM) Akt2 WM115
# T3 construct: SureFire assays to detect cellular p-Akt1, p-Akt2 and p-Akt3 levels in WM115 cells (Akt2/3) and LNCaP cells (Akt1); endogenous in cells; host or cells: WM115 (ECACC 91061232), insulin-stimulated
# T3 sequence (P31751 whole entry): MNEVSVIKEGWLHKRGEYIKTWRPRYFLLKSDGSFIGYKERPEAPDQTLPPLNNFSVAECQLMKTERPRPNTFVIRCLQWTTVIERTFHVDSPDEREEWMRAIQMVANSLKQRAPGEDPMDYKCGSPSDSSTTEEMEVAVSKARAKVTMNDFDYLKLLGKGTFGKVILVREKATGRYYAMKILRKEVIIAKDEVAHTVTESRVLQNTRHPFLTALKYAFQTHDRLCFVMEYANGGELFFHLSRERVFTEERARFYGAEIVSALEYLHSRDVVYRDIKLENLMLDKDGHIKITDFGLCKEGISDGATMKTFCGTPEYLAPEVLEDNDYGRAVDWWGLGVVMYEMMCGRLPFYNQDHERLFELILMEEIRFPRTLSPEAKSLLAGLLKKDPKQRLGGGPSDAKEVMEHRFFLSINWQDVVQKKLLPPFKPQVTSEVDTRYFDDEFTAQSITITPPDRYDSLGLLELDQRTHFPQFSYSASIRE
# How it was run: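 Readout is a bead-proximity SureFire assay pairing a pThr308 Akt antibody with a total Akt2 antibody, lysate and beads incubated 2 h plus 2 h at room temperature in the dark. Before lysis, serum-starved WM115 cells received 100 nM insulin (10 min), then test compound (15 min, 0.3% DMSO); IC50 by 4-parameter equation.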
# Akt2 = target: T4, Akt2 (Homo sapiens, UniProt P31751); test: Akt activation assay (PDK1-mediated activation, LANCE Ultra crosstide TR-FRET), Akt2; format: biochemical; details: read-out: Biological Assay 1 IC50 (nM) Akt2
# T4 construct: unspecified tag, removed (detagged) (cleaved yes); purchased SignalChem and Proteros (Akt2); Merck Millipore (PDK1) 14-452 (PDK1); none given for Akt2
# T4 sequence (P31751 whole entry): as above
# How it was run: (§1)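 This TR-FRET readout (Eu-anti-phospho-crosstide antibody, 665/615 nm) measured PDK1-driven activation of Akt. Compound was first preincubated with each Akt isoform: Akt1 5 nM; Akt2 15 nM SignalChem or 5 nM Proteros; Akt3 3 nM SignalChem or 5 nM Proteros. Reactions then ran 30 min with 5 nM PDK1, lipid vesicles containing 0.55 µM PtdIns(3,4,5)P3, 100 µM ATP and 100 nM crosstide at pH 7.5, and IC50 came from a 4-parameter equation.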
# Akt1 = target: T5, Akt1 (Homo sapiens, UniProt P31749); test: Akt activation assay (PDK1-mediated activation, LANCE Ultra crosstide TR-FRET), Akt1; format: biochemical; details: read-out: Biological Assay 1 IC50 (nM) Akt1
# T5 construct: unspecified tag, removed (detagged) (cleaved yes); purchased SignalChem and Proteros (Akt1); Merck Millipore (PDK1) 14-452 (PDK1); none given for Akt1
# T5 sequence (P31749 whole entry): as the sequence (P31749 whole entry) above
# How it was run: as §1
# Akt3 = target: T6, Akt3 (Homo sapiens, UniProt Q9Y243); test: Akt activation assay (PDK1-mediated activation, LANCE Ultra crosstide TR-FRET), Akt3; format: biochemical; details: read-out: Biological Assay 1 IC50 (nM) Akt3
# T6 construct: unspecified tag, removed (detagged) (cleaved yes); purchased SignalChem and Proteros (Akt3); Merck Millipore (PDK1) 14-452 (PDK1); none given for Akt3
# T6 sequence (Q9Y243 whole entry): as the sequence (Q9Y243 whole entry) above
# How it was run: as §1
Structure (SMILES),IC50 (p-Akt1 in LNCaP cells),IC50 (p-Akt3 in WM115 cells),IC50 (p-Akt2 in WM115 cells),IC50 (Akt2),IC50 (Akt1),IC50 (Akt3)
"CN(C(=O)C1CC1)[C@H]1CC[C@H](CC(=O)Nc2cnc(-c3ccc(C(C)(C)N)cc3)c(-c3ccccc3)c2)CC1 [Example A29, N-(trans-4-(2-((6-(4-(2-aminopropan-2-yl)phenyl)-5-phenylpyridin-3-yl)amino)-2-oxoethyl)cyclohexyl)-N-methylcyclopropanecarboxamide]",> 28000 nM,150 nM,5800 nM,5700 nM,> 30000 nM,490 nM
"NC1(c2ccc(-c3cnc(NC(=O)C[C@H]4CC[C@H](N5CCOC5=O)CC4)cc3-c3ccccc3F)cc2)CCC1 [Example A65, N-(5-(4-(1-aminocyclobutyl)phenyl)-4-(2-fluorophenyl)pyridin-2-yl)-2-(trans-4-(2-oxooxazolidin-3-yl)cyclohexyl)acetamide]",> 30000 nM,37 nM,570 nM,270 nM,> 30000 nM,17 nM
"CN(C(=O)C1CCC1)[C@H]1CC[C@H](CC(=O)Nc2cc(-c3ccccc3)c(-c3ccc(C4(N)CC4)cc3)nn2)CC1 [Example A93, N-(trans-4-(2-((6-(4-(1-aminocyclopropyl)phenyl)-5-phenylpyridazin-3-yl)amino)-2-oxoethyl)cyclohexyl)-N-methylcyclobutanecarboxamide]",> 30000 nM,200 nM,2600 nM,1400 nM,> 19000 nM,37 nM
"CC(C)(N)c1ccc(-c2cnc(NC(=O)C[C@H]3CC[C@H](N4CCOC4=O)CC3)cc2-c2ccsc2)cc1 [Example A52, N-(5-(4-(2-aminopropan-2-yl)phenyl)-4-(thiophen-3-yl)pyridin-2-yl)-2-(trans-4-(2-oxooxazolidin-3-yl)cyclohexyl)acetamide]",> 30000 nM,240 nM,2600 nM,11000 nM,> 30000 nM,640 nM
"CC(C)(N)c1ccc(-c2cnc(NC(=O)C[C@H]3CC[C@H](N4CCCC4=O)CC3)cc2-c2ccccc2)cc1 [Example A49, N-(5-(4-(2-aminopropan-2-yl)phenyl)-4-phenylpyridin-2-yl)-2-(trans-4-(2-oxopyrrolidin-1-yl)cyclohexyl)acetamide]",> 30000 nM,200 nM,4400 nM,3600 nM,> 30000 nM,120 nM
"CCC(=O)N(C)[C@H]1CC[C@H](CC(=O)Nc2cc(-c3ccccc3)c(-c3ccc([C@]4(N)C[C@](C)(O)C4)c(F)c3)nn2)CC1 [Example 126, N-(trans-4-(2-((6-(4-(trans-1-amino-3-hydroxy-3-methylcyclobutyl)-3-fluorophenyl)-5-phenylpyridazin-3-yl)amino)-2-oxoethyl)cyclohexyl)-N-methylpropionamide]",> 30000 nM,32 nM,3300 nM,3000 nM,> 30000 nM,31 nM
"CCC(=O)N(C)[C@H]1CC[C@H](CC(=O)Nc2cnc(-c3ccc(C(C)(C)N)cc3)c(-c3ccccc3)c2)CC1 [Example A95, N-(trans-4-(2-((6-(4-(2-aminopropan-2-yl)phenyl)-5-phenylpyridin-3-yl)amino)-2-oxoethyl)cyclohexyl)-N-methylpropionamide]",> 30000 nM,110 nM,3100 nM,3300 nM,> 30000 nM,54 nM

# Other lines, results leading:
IC50 (p-Akt1 in LNCaP cells),IC50 (p-Akt3 in WM115 cells),IC50 (p-Akt2 in WM115 cells),IC50 (Akt2),IC50 (Akt1),IC50 (Akt3),Structure (SMILES)
760 nM,48 nM,810 nM,350 nM,260 nM,290 nM,"C[C@]1(O)C[C@@](N)(c2ccc(-c3ncc(NC(=O)C[C@H]4CC[C@H](N5CCOCC5)CC4)cc3-c3ccccc3)cc2)C1 [Example A15, N-(6-(4-(trans-1-amino-3-hydroxy-3-methylcyclobutyl)phenyl)-5-phenylpyridin-3-yl)-2-(trans-4-morpholinocyclohexyl)acetamide]"
> 5700 nM,120 nM,1600 nM,190 nM,10000 nM,18 nM,"CC(=O)N[C@H]1CC[C@H](CC(=O)Nc2cnc(-c3ccc(C4(N)CCC4)cc3)c(-c3ccccc3)c2)CC1 [Example A38, 2-(trans-4-acetamidocyclohexyl)-N-(6-(4-(1-aminocyclobutyl)phenyl)-5-phenylpyridin-3-yl)acetamide]"
11000 nM,45 nM,710 nM,380 nM,7800 nM,24 nM,"CC(=O)N(C)[C@H]1CC[C@H](CC(=O)Nc2cnc(-c3ccc(C4(N)CCC4)cc3)c(-c3ccccc3F)c2)CC1 [Example 16, N-(6-(4-(1-aminocyclobutyl)phenyl)-5-(2-fluorophenyl)pyridin-3-yl)-2-(trans-4-(N-methylacetamido)cyclohexyl)acetamide]"
790 nM,26 nM,1000 nM,170 nM,2400 nM,8 nM,"CC(=O)N(C(C)C)[C@H]1CC[C@H](CC(=O)Nc2cc(-c3ccccc3)c(-c3ccc([C@]4(N)C[C@](C)(O)C4)cc3)nn2)CC1 [Example 100, N-(6-(4-(trans-1-amino-3-hydroxy-3-methylcyclobutyl)phenyl)-5-phenylpyridazin-3-yl)-2-(trans-4-(N-isopropylacetamido)cyclohexyl)acetamide]"
> 26000 nM,170 nM,10000 nM,> 30000 nM,> 30000 nM,72 nM,"CC(=O)N(C)[C@H]1CC[C@H](CC(=O)Nc2cnc(-c3ccc(C(C)(C)N)cc3)c(-c3ccccc3)c2)CC1 [Example 3, N-(6-(4-(2-aminopropan-2-yl)phenyl)-5-phenylpyridin-3-yl)-2-(trans-4-(N-methylacetamido)cyclohexyl)acetamide]"
7100 nM,81 nM,1200 nM,1100 nM,> 30000 nM,57 nM,"CC(=O)N(C)[C@H]1CC[C@H](CC(=O)Nc2cc(-c3ccccc3F)c(-c3ccc(C4(N)CCC4)cc3)cn2)CC1 [Example A62, N-(5-(4-(1-aminocyclobutyl)phenyl)-4-(2-fluorophenyl)pyridin-2-yl)-2-(trans-4-(N-methylacetamido)cyclohexyl)acetamide]"
3800 nM,13 nM,900 nM,160 nM,7000 nM,5 nM,"CCC(=O)N(C)[C@H]1CC[C@H](CC(=O)Nc2cc(-c3ccsc3)c(-c3ccc([C@]4(N)C[C@](C)(O)C4)cc3)nn2)CC1 [Example 91, N-(trans-4-(2-((6-(4-(trans-1-amino-3-hydroxy-3-methylcyclobutyl)phenyl)-5-(thiophen-3-yl)pyridazin-3-yl)amino)-2-oxoethyl)cyclohexyl)-N-methylpropionamide]"
> 19000 nM,8 nM,830 nM,140 nM,2600 nM,5 nM,"COC(=O)N(C)[C@H]1CC[C@H](CC(=O)Nc2cc(-c3ccsc3)c(-c3ccc([C@]4(N)C[C@](C)(O)C4)cc3)nn2)CC1 [Example 84, Methyl (trans-4-(2-((6-(4-(trans-1-amino-3-hydroxy-3-methylcyclobutyl)phenyl)-5-(thiophen-3-yl)pyridazin-3-yl)amino)-2-oxoethyl)cyclohexyl)(methyl)carbamate]"
